Results on three molecules are retold here after ChEMBL document CHEMBL2073810, “Mrp2 is essential for estradiol-17beta(beta-D-glucuronide)-induced cholestasis in rats” (Hepatology, 2000).

What all share (assay type): functional, cell membranes, Membrane vesicle
Data set [1] has as its target T1, Bile salt export pump (Rattus norvegicus, UniProt O70127).
T1 sequence (O70127 whole entry): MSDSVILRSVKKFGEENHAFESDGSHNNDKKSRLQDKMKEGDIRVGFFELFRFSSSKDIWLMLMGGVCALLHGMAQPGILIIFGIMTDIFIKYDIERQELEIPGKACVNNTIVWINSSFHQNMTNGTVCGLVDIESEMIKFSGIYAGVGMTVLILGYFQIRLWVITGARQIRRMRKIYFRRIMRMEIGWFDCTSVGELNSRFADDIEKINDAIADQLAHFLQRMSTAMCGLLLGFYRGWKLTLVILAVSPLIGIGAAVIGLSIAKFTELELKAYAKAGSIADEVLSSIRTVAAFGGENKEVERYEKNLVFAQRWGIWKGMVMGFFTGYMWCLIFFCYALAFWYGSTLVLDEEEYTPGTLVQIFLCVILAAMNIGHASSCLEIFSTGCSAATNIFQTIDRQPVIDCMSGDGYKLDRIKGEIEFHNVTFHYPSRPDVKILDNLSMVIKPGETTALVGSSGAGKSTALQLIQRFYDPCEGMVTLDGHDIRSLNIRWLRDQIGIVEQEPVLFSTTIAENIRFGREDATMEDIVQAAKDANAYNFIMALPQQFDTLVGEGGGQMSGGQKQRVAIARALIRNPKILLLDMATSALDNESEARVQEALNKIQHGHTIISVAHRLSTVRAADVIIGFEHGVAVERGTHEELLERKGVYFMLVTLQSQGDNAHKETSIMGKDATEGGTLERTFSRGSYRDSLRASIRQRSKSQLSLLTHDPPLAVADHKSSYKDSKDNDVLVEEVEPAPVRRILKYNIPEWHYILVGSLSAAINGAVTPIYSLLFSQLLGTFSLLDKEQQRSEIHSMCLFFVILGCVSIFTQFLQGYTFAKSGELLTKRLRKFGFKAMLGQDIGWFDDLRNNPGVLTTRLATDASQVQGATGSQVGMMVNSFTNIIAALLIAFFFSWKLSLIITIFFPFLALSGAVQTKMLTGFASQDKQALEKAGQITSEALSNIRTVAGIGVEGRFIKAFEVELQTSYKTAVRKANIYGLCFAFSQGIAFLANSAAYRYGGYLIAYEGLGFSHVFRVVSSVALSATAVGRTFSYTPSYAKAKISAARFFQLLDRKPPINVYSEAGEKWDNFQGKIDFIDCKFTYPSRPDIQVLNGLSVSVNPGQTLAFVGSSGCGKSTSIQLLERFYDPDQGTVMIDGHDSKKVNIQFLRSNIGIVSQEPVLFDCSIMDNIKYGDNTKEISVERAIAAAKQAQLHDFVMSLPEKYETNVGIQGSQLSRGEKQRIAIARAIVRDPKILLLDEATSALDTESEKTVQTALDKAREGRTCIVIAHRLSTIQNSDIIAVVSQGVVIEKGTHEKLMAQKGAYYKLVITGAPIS
Kind of data set: TP_TRANSPORTER: inhibition of Taurocholate uptake (Taurochorate: 1 uM, E217betaG: 50 uM) in membrane vesicles from Bsep-expressing Sf9 cells. As to conditions: sf9, 50 µM.

Data set [2] concerns the target T1, Bile salt export pump. Kind of data set: TP_TRANSPORTER: inhibition of Taurocholate uptake (Taurochorate: 1uM, Ethinyl estradiol: 25 uM) in membrane vesicles from Bsep-expressing Sf9 cells. Particulars: sf9, 25 µM.
Data set [3] deals with T1, Bile salt export pump. The data set can be described thus: TP_TRANSPORTER: inhibition of Taurocholate uptake (Taurochorate: 100 uM, TLC: 10 uM) in membrane vesicles from Bsep-expressing Sf9 cells. As to conditions: sf9, 10 µM.

Structures are written as SMILES.

Consider `C[C@]12CC[C@@H]3c4ccc(O)cc4CC[C@H]3[C@@H]1CC[C@@H]2O[C@@H]1O[C@H](C(=O)O)[C@@H](O)[C@H](O)[C@H]1O` [ESTRADIOL 17B GLUCURONIDE], for which the Activity entry in data set [1] was “is not an inhibitor [-]”.
Regarding `C#C[C@]1(O)CC[C@H]2[C@@H]3CCc4cc(O)ccc4[C@H]3CC[C@@]21C` [ETHINYL ESTRADIOL], the Activity result in data set [2] is “is not an inhibitor [-]”.
Take `C[C@H](CCC(=O)NCCS(=O)(=O)O)[C@H]1CC[C@H]2[C@@H]3CC[C@@H]4C[C@H](O)CC[C@]4(C)[C@H]3CC[C@]12C` [TAUROLITHOCHOLIC ACID]: the Activity result in data set [3] was “inhibitor [+]”.
